According to PMC4961458 (eLife, 2016):

How the values were obtained:
Assay type in all cases: cell-based
PR-B = biological target: T1, PR-B (Homo sapiens, UniProt P06401); test: PR-B transcriptional reporter assay, agonist mode (HEPG2 cells); conditions: % of maximal R5020-stimulated activity
T1 construct: cloning full-length human PRb into pCDNA; expressed in transfected cells; host or cells: HEPG2
T1 sequence (P06401 1-933): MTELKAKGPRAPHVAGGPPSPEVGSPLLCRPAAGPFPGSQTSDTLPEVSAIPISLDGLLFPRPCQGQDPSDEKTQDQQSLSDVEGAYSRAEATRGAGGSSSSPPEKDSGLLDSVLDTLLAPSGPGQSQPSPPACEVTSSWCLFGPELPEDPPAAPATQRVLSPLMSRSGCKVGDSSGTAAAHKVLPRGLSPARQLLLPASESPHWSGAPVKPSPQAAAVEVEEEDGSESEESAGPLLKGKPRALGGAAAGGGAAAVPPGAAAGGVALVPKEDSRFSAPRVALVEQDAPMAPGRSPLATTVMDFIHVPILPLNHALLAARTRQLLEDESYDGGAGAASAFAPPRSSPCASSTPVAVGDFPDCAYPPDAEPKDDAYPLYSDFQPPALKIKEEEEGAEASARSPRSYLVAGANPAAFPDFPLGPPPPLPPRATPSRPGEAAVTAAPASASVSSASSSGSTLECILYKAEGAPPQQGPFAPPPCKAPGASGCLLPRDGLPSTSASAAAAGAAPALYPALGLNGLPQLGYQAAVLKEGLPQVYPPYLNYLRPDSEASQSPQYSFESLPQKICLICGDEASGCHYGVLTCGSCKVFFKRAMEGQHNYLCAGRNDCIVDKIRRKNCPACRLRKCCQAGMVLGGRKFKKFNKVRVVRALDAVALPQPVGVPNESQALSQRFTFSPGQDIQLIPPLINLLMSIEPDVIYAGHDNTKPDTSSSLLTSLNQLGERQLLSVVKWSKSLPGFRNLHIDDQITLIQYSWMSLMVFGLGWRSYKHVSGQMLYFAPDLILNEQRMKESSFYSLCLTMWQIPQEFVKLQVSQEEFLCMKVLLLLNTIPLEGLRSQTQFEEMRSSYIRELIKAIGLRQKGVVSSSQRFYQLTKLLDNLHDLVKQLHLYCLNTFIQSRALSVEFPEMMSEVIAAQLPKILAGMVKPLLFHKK

PR-A = biological target: T2, PR-A (Homo sapiens, UniProt P06401); test: PR-A transcriptional reporter assay, agonist mode (HEPG2 cells); set-up: subcloning full-length PRa into pCMX; expressed in transfected cells; host or cells: HEPG2; conditions: % of maximal R5020-stimulated activity
T2 sequence (P06401 1-769 isoform P06401-2): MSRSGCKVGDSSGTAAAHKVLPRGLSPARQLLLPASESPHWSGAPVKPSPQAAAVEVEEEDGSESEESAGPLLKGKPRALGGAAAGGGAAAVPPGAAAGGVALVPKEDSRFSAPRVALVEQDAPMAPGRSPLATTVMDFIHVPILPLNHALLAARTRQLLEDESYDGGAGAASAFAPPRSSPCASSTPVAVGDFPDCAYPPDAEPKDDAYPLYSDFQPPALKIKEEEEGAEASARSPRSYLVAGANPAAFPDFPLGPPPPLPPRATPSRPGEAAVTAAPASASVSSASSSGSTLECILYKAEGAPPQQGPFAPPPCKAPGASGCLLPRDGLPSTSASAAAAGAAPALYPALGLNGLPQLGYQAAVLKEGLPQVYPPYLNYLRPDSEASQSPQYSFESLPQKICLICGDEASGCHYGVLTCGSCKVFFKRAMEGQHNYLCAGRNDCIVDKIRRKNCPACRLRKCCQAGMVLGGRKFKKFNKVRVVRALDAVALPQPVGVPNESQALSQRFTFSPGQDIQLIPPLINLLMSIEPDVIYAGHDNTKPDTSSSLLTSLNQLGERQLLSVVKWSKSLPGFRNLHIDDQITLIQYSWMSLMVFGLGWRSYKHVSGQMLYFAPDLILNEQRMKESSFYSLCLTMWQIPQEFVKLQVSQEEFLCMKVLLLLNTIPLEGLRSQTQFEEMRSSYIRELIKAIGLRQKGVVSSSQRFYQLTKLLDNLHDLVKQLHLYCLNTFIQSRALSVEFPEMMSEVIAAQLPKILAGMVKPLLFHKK
Protocol: Transcriptional assays were performed by seeding 100 μL of cells at a density of 250,000 cells/mL into 96-well cell culture plates in RPMI 1640 supplemented with 5% charcoal-stripped serum and allowed to attach overnight. […] Triplicate transfections were performed using 418 ng reporter vector (2X PRE-Luciferase for PR-A and PR-B, MMTV-Luciferase for MR), 50 ng CMVpRL (normalization vector), 10 ng NHR expression vector (CMX-PR-A, pCDNA-PR-B or 6R-MR), and 0.7 μL lipofectin. […] The final agonist concentration used in the antagonist assays was 1 nM. Following 24 hr incubation, the medium was removed and the cells were lysed in 40 μL of lysis buffer (25 mM Tris Phosphate, 2 mM CDTA, 10% Glycerol, 0.5% Triton X-100, 2 mM DTT). Firefly luciferase activity was measured immediately following the addition of 40 μL luciferase buffer (20 mM tricine, 0.1 mM EDTA, 1.07 mM (MgCO3)4 Mg(OH)2· 5H2O, 2.67 mM MgSO4, 33.3 mM DTT, 270 μM Coenzyme A, 470 μM luciferin, 530 μM ATP).

[1] = tested on: Doxycycline-inducible MCF7 cells (Vector); test: Cell viability, doxycycline-inducible MCF7 cells, vector control; conditions: Homo sapiens, MCF7, 168 h, 7 days; for IC50: 0.1 nM E2, 10 ng/ml doxycycline; for EC50: estrogen-depleted medium, 10 ng/ml doxycycline, read-out: Cell viability EC50, Vector -E2

## CC/C(=C(\c1ccc(O)cc1)c1ccc(OCCN(C)C)cc1)c1ccccc1 [4-OH Tam, 4-hydroxytamoxifen]
PR-B
  Emax: 0.39 ± 0.23%
PR-A
  Emax: 0.04 ± 0.06%

## C[C@]12CC[C@@H]3c4ccc(O)cc4C[C@@H](CCCCCCCCC[S+]([O-])CCCC(F)(F)C(F)(F)F)[C@H]3[C@@H]1CC[C@@H]2O (some centres unmarked) [Fulvestrant]
[1]
  IC50: 7.2 nM
  EC50: 0.8 nM

## CC/C(=C(/c1ccc(/C=C/C(=O)O)cc1)c1ccc2[nH]ncc2c1)c1ccc(F)cc1Cl [GDC-0810]
PR-B
  Emax: 0.35 ± 0.31%
PR-A
  Emax: 6.68 ± 7.97%
[1]
  IC50: 15 nM
  EC50: 1 nM
